PubChem BioAssay (NCI)
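All cell lines were grown in 96-well plates and treated with compound for 48 hours. Here, GI50 denotes the concentration required for 50% inhibition of growth. TGI: concentration producing complete growth inhibition.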

How the values were obtained:
Assay in all cases: DTP human tumour cell line panel, 48 h
RPMI-8226 leukemia = tested on: RPMI-8226 leukemia
OVCAR-5 ovarian = tested on: OVCAR-5 ovarian
HOP-62 NSCLC = tested on: HOP-62 NSCLC
MOLT-4 leukemia = tested on: MOLT-4 leukemia
OVCAR-3 ovarian = tested on: OVCAR-3 ovarian
SK-MEL-28 melanoma = tested on: SK-MEL-28 melanoma
HOP-92 NSCLC = tested on: HOP-92 NSCLC
SF-268 CNS = tested on: SF-268 CNS
NCI-H23 lung = tested on: NCI-H23 lung
SNB-19 CNS = tested on: SNB-19 CNS
M14 melanoma = tested on: M14 melanoma
HCT-15 colon = tested on: HCT-15 colon
MDA-MB-435 = tested on: MDA-MB-435

SMILES | TGI (RPMI-8226 leukemia) | TGI (OVCAR-5 ovarian) | TGI (HOP-62 NSCLC) | TGI (MOLT-4 leukemia) | TGI (OVCAR-3 ovarian) | TGI (SK-MEL-28 melanoma) | TGI (HOP-92 NSCLC) | TGI (SF-268 CNS) | TGI (NCI-H23 lung) | TGI (SNB-19 CNS) | TGI (M14 melanoma) | TGI (HCT-15 colon) | TGI (MDA-MB-435) | GI50 (RPMI-8226 leukemia) | GI50 (OVCAR-5 ovarian) | GI50 (HOP-62 NSCLC) | GI50 (SK-MEL-28 melanoma) | GI50 (HOP-92 NSCLC) | GI50 (M14 melanoma) | GI50 (NCI-H23 lung)
Cc1ccc(N2C(=O)/C(=c3\s/c(=C(/N)O)c(=N)n3-c3ccccc3)SC2=S)cc1 | > 100 µM | > 100 µM | > 100 µM | > 100 µM | > 100 µM | > 100 µM | 47.1 µM | > 100 µM | > 100 µM | > 100 µM | – | – | – | – | – | – | – | – | – | –
CCCCCCCCCCCCCCCCCC(=O)NCCCNCCCNC(=O)CCCCCCCCCCCCCCCCC | > 100 µM | > 100 µM | > 100 µM | > 100 µM | > 100 µM | > 100 µM | > 100 µM | > 100 µM | > 100 µM | > 100 µM | > 100 µM | > 100 µM | – | – | – | – | – | – | – | –
Cc1[nH]n(-c2ccccc2)c(=S)c1C(=O)c1ccccc1 | 50.2 µM | > 100 µM | – | 79.4 µM | – | > 100 µM | – | > 100 µM | > 100 µM | > 100 µM | 93.7 µM | > 100 µM | – | – | – | – | – | – | – | –
COc1ccc(C2=C(OC(C)=O)c3cccn3-c3ccccc3S2)cc1 | > 10 µM | – | > 10 µM | > 10 µM | – | > 10 µM | > 10 µM | > 10 µM | 7.73 µM | – | > 10 µM | > 10 µM | 0.877 µM | – | – | – | – | – | – | –
COc1cc2cc(C(=O)N3CC(COS(C)(=O)=O)c4c3cc([N+](=O)[O-])c3ccccc43)[nH]c2c(OC)c1OC (centres undefined) | > 31.6 µM | > 31.6 µM | > 31.6 µM | – | > 31.6 µM | > 31.6 µM | > 31.6 µM | > 31.6 µM | > 31.6 µM | > 31.6 µM | > 31.6 µM | > 31.6 µM | > 31.6 µM | – | – | – | – | – | – | –
CCOc1ccc(N=Cc2cc(OC)c(OC)c(OC)c2)cc1 | 45.1 µM | > 100 µM | > 100 µM | > 100 µM | > 100 µM | > 100 µM | > 100 µM | > 100 µM | > 100 µM | > 100 µM | > 100 µM | > 100 µM | – | – | – | – | – | – | – | –
Cc1c2n(c3ccccc13)CC1C2N(C)OC1(C)C (centres undefined) | > 100 µM | > 100 µM | > 100 µM | > 100 µM | > 100 µM | > 100 µM | – | > 100 µM | > 100 µM | > 100 µM | > 100 µM | > 100 µM | – | – | – | – | – | – | – | –
CC(O[Si](C)(C)C(C)(C)C)[C@H](NC(=O)OCC(Cl)(Cl)Cl)C(=O)O (some centres undefined) | > 100 µM | > 100 µM | > 100 µM | > 100 µM | > 100 µM | > 100 µM | – | > 100 µM | > 100 µM | > 100 µM | – | > 100 µM | > 100 µM | – | – | – | – | – | – | –
O=C(c1nsc(Cl)c1Cl)N1CCCCC1 | > 100 µM | > 100 µM | > 100 µM | > 100 µM | > 100 µM | > 100 µM | – | > 100 µM | > 100 µM | > 100 µM | > 100 µM | > 100 µM | > 100 µM | – | – | – | – | – | – | –
Clc1ccc2c(NCCNc3nc(-c4ccccc4)cc(-c4ccccc4)n3)ccnc2c1 | 5.1 µM | 3.17 µM | 3.05 µM | – | – | 3.23 µM | 3.14 µM | – | 3.8 µM | – | 3.16 µM | – | – | 2.19 µM | 1.68 µM | 1.61 µM | 1.76 µM | 1.61 µM | 1.71 µM | 1.87 µM
CCC(C)(C)NC1=C(NC(C)=O)C(=O)c2ccccc2C1=O | – | – | > 75 µM | 31.6 µM | > 75 µM | > 75 µM | – | > 75 µM | 73.7 µM | > 75 µM | > 75 µM | > 75 µM | – | – | – | – | – | – | – | –
CC(=O)CN=C(C)NNc1ccc([N+](=O)[O-])cc1[N+](=O)[O-] | > 100 µM | > 100 µM | > 100 µM | > 100 µM | > 100 µM | > 100 µM | – | > 100 µM | > 100 µM | > 100 µM | > 100 µM | > 100 µM | > 100 µM | – | – | – | – | – | – | –
CCN(CC)CC(C)(C)C(=O)/C=C/c1ccc(C)cc1 | – | 27.6 µM | 32.9 µM | 39.9 µM | 21.7 µM | 27.8 µM | 8.45 µM | 22.1 µM | – | 25 µM | 25 µM | 14.8 µM | – | – | – | – | – | – | – | –
c1ccc2cc3n[se]nc3cc2c1 | > 100 µM | > 100 µM | – | > 100 µM | – | > 100 µM | – | > 100 µM | > 100 µM | > 100 µM | > 100 µM | > 100 µM | – | – | – | – | – | – | – | –
COC(=O)[C@]1(c2cc3ccccc3n2S(=O)(=O)c2ccccc2)CC2CCC1NC2 (some centres undefined) | 23.1 µM | 29.9 µM | 34 µM | – | 33.1 µM | 32 µM | 24.4 µM | 40 µM | 40.1 µM | 28 µM | 27.2 µM | 40.5 µM | 27.4 µM | – | – | – | – | – | – | –
CC(=O)OC1CC(OC2C(O)CC(OC3C(O)CC(OC4CCC5(C)C(CCC6C5CC(O)C5(C)C(C7=CC(=O)OC7)CCC65O)C4)OC3C)OC2C)OC(C)C1O (centres undefined) (tested in a mixture with another compound) | – | 0.12 µM | 0.152 µM | – | 0.0507 µM | – | 0.182 µM | 0.119 µM | 0.0346 µM | 0.458 µM | 0.231 µM | 0.107 µM | 0.357 µM | – | – | – | – | – | – | –
Nc1nc(Nc2ccc(Cl)cc2)sc1C(=O)c1cc2ccccc2oc1=O | > 100 µM | > 100 µM | 42.7 µM | – | 38.6 µM | > 100 µM | > 100 µM | > 100 µM | 89.5 µM | > 100 µM | > 100 µM | > 100 µM | > 100 µM | – | – | – | – | – | – | –
Nc1nc(Cl)cc(Nc2ccc3c(c2)CCC3)n1 | 65.1 µM | > 100 µM | – | 84.7 µM | > 100 µM | > 100 µM | > 100 µM | > 100 µM | > 100 µM | > 100 µM | > 100 µM | > 100 µM | > 100 µM | – | – | – | – | – | – | –
OCCOCCO[P+]1(OCCOCCO)n2c3ccc2C(c2ccccc2)=C2C=CC(=N2)C(c2ccccc2)=c2ccc(n21)=C(c1ccccc1)C1=NC(=C3c2ccccc2)C=C1 | 0.0896 µM | 1.95 µM | – | 0.189 µM | 0.158 µM | 0.778 µM | > 100 µM | – | 0.629 µM | – | 1.38 µM | 3.21 µM | – | – | – | – | – | – | – | –
CC(=O)Oc1ccc(-c2cc3ccccc3oc2=O)cc1OC(C)=O | > 100 µM | > 100 µM | > 100 µM | > 100 µM | – | > 100 µM | – | > 100 µM | > 100 µM | > 100 µM | > 100 µM | > 100 µM | > 100 µM | – | – | – | – | – | – | –
